The series in a line: Bioavailability of afatinib in fed state. It counts as in vivo. The note with it: adults. From the text: As decreased bioavailability of afatinib has been observed in adults ad fed state, the oral solution is not intended to be administered with food or drinks.

This is an account of results in patent publication US20170319480A1, “PHARMACEUTICAL FORMULATION” (Boehringer Ingelheim International GmbH, priority 2014, published 2017).

`CN(C)C/C=C/C(=O)Nc1cc2c(Nc3ccc(F)c(Cl)c3)ncnc2cc1O[C@H]1CCOC1` [afatinib, 4-[(3-chloro-4-fluorophenyl)amino]-6-{[4-(N,N-dimethylamino)-1-oxo-2-buten-1-yl]amino}-7-((S)-tetrahydrofuran-3-yloxy)-quinazoline]: the “bioavailability in fed state” value was “decreased”.
